Reference: patent US12077503B2, “Substituted cyclic amides and their use as herbicides” (FMC CORPORATION, priority 2015, dated 2024)

Experiments:
Experiment in all cases: Test C postemergence
Format in all cases: in vivo
Conditions in all cases: scale 0 to 100, 0 no effect, 100 complete control
[1] = system: ragweed (common ragweed, Ambrosia elatior)
Text: (§1) Seeds of plant species selected from blackgrass (Alopecurus myosuroides), ryegrass, Italian (Italian ryegrass, Lolium multiflorum), wheat (winter wheat, Triticum aestivum), Galium (catchweed bedstraw, Galium aparine), corn (Zea mays), crabgrass, large (large crabgrass, Digitaria sanguinalis), foxtail, giant (giant foxtail, Setaria faberii), johnsongrass (Sorghum halepense), lambsquarters (Chenopodium album), morningglory (Ipomoea coccinea), nutsedge, yellow (yellow nutsedge, Cyperus esculentus), pigweed (Amaranthus retroflexus), ragweed (common ragweed, Ambrosia elatior), soybean (Glycine max), barnyardgrass (Echinochloa crus-galli), oilseed rape (Brassica napus), waterhemp (common waterhemp, Amaranthus rudis) and velvetleaf (Abutilon theophrasti) were planted into a blend of loam soil and sand and treated preemergence with test chemicals formulated in a non-phytotoxic solvent mixture which included a surfactant.
(§2) At the same time, plants selected from these crop and weed species and also Kochia (Kochia scoparia), oat, wild (wild oat, Avena fatua), and chickweed (common chickweed, Stellaria media) were planted in pots containing Sunshine Redi-Earth® planting medium comprising spaghnum peat moss, vermiculite, starter nutrients and dolomitic limestone and treated with postemergence applications of test chemicals formulated in the same manner. Plants ranged in height from 2 to 18 cm (1- to 4-leaf stage) for postemergence treatments. Treated plants and controls were maintained in a greenhouse for 13 to 15 d, after which time all species were compared to controls and visually evaluated. Plant response ratings, summarized in Table C, are based on a scale of 0 to 100 where 0 is no effect and 100 is complete control. A dash (-) response means no test result.

[2] = system: morningglory (Ipomoea coccinea)
Text: as §1, §2

[3] = system: pigweed (Amaranthus retroflexus)
Text: as §1, §2

[4] = system: oat, wild (wild oat, Avena fatua)
Text: as §1, §2

[5] = system: velvetleaf (Abutilon theophrasti)
Text: as §1, §2

[6] = system: lambsquarters (Chenopodium album)
Text: as §1, §2

[7] = system: Galium (catchweed bedstraw, Galium aparine)
Text: as §1, §2

[8] = system: oilseed rape (Brassica napus)
Text: as §1, §2

[9] = system: nutsedge, yellow (yellow nutsedge, Cyperus esculentus)
Text: as §1, §2

[10] = system: barnyardgrass (Echinochloa crus-galli)
Text: as §1, §2

[11] = system: johnsongrass (Sorghum halepense)
Text: as §1, §2

O=C1NCC(c2ccc3c(c2)OC(F)(F)O3)C1C(=O)Nc1cccc(F)c1F (stereo not drawn) [Compound 635]
60: Plant response rating, Ragweed ([1]; 62 g ai/ha) | Plant response rating, Pigweed ([3]; 62 g ai/ha) | Plant response rating, Galium ([7]; 125 g ai/ha)
0: Plant response rating, Oat, Wild ([4]; 31 g ai/ha) | Plant response rating, Oat, Wild ([4]; 62 g ai/ha) | Plant response rating, Oat, Wild ([4]; 125 g ai/ha) | Plant response rating, Velvetleaf ([5]; 31 g ai/ha) | Plant response rating, Velvetleaf ([5]; 62 g ai/ha) | Plant response rating, Nutsedge, Yellow ([9]; 31 g ai/ha) | Plant response rating, Nutsedge, Yellow ([9]; 62 g ai/ha) | Plant response rating, Nutsedge, Yellow ([9]; 125 g ai/ha) | Plant response rating, Nutsedge, Yellow ([9]; 250 g ai/ha) | Plant response rating, Barnyardgrass ([10]; 31 g ai/ha) | Plant response rating, Johnsongrass ([11]; 31 g ai/ha) | Plant response rating, Johnsongrass ([11]; 62 g ai/ha)
45: Plant response rating, Morningglory ([2]; 125 g ai/ha) | Plant response rating, Morningglory ([2]; 250 g ai/ha) | Plant response rating, Oilseed Rape ([8]; 62 g ai/ha)
55: Plant response rating, Galium ([7]; 250 g ai/ha)
30: Plant response rating, Velvetleaf ([5]; 250 g ai/ha)
50: Plant response rating, Galium ([7]; 31 g ai/ha) | Plant response rating, Galium ([7]; 62 g ai/ha) | Plant response rating, Oilseed Rape ([8]; 31 g ai/ha)
40: Plant response rating, Morningglory ([2]; 62 g ai/ha)
10: Plant response rating, Velvetleaf ([5]; 125 g ai/ha) | Plant response rating, Oilseed Rape ([8]; 125 g ai/ha) | Plant response rating, Barnyardgrass ([10]; 62 g ai/ha)
80: Plant response rating, Ragweed ([1]; 250 g ai/ha) | Plant response rating, Lambsquarters ([6]; 62 g ai/ha) | Plant response rating, Oilseed Rape ([8]; 250 g ai/ha)
75: Plant response rating, Pigweed ([3]; 125 g ai/ha) | Plant response rating, Pigweed ([3]; 250 g ai/ha) | Plant response rating, Lambsquarters ([6]; 31 g ai/ha) | Plant response rating, Lambsquarters ([6]; 125 g ai/ha)
85: Plant response rating, Lambsquarters ([6]; 250 g ai/ha)
5: Plant response rating, Oat, Wild ([4]; 250 g ai/ha) | Plant response rating, Johnsongrass ([11]; 125 g ai/ha) | Plant response rating, Johnsongrass ([11]; 250 g ai/ha)
65: Plant response rating, Pigweed ([3]; 31 g ai/ha) | Plant response rating, Barnyardgrass ([10]; 125 g ai/ha) | Plant response rating, Barnyardgrass ([10]; 250 g ai/ha)
70: Plant response rating, Ragweed ([1]; 125 g ai/ha)
25: Plant response rating, Ragweed ([1]; 31 g ai/ha) | Plant response rating, Morningglory ([2]; 31 g ai/ha)

CN1CC(c2ccc(F)c(F)c2)C(C(=O)Nc2ccccc2C(F)(F)F)C1=O (stereo not drawn) [Compound 641]
25: Plant response rating, Pigweed ([3]; 125 g ai/ha)
55: Plant response rating, Oilseed Rape ([8]; 250 g ai/ha)
0: Plant response rating, Ragweed ([1]; 31 g ai/ha) | Plant response rating, Ragweed ([1]; 62 g ai/ha) | Plant response rating, Morningglory ([2]; 31 g ai/ha) | Plant response rating, Pigweed ([3]; 31 g ai/ha) | Plant response rating, Pigweed ([3]; 62 g ai/ha) | Plant response rating, Oat, Wild ([4]; 31 g ai/ha) | Plant response rating, Oat, Wild ([4]; 62 g ai/ha) | Plant response rating, Oat, Wild ([4]; 125 g ai/ha) | Plant response rating, Oat, Wild ([4]; 250 g ai/ha) | Plant response rating, Nutsedge, Yellow ([9]; 31 g ai/ha) | Plant response rating, Nutsedge, Yellow ([9]; 62 g ai/ha) | Plant response rating, Nutsedge, Yellow ([9]; 125 g ai/ha) | Plant response rating, Nutsedge, Yellow ([9]; 250 g ai/ha) | Plant response rating, Barnyardgrass ([10]; 31 g ai/ha) | Plant response rating, Johnsongrass ([11]; 31 g ai/ha) | Plant response rating, Johnsongrass ([11]; 62 g ai/ha) | Plant response rating, Johnsongrass ([11]; 125 g ai/ha) | Plant response rating, Johnsongrass ([11]; 250 g ai/ha)
10: Plant response rating, Barnyardgrass ([10]; 62 g ai/ha)
45: Plant response rating, Oilseed Rape ([8]; 62 g ai/ha) | Plant response rating, Oilseed Rape ([8]; 125 g ai/ha)
50: Plant response rating, Pigweed ([3]; 250 g ai/ha) | Plant response rating, Velvetleaf ([5]; 250 g ai/ha)
15: Plant response rating, Morningglory ([2]; 62 g ai/ha) | Plant response rating, Lambsquarters ([6]; 62 g ai/ha)
35: Plant response rating, Morningglory ([2]; 125 g ai/ha) | Plant response rating, Barnyardgrass ([10]; 125 g ai/ha)
5: Plant response rating, Lambsquarters ([6]; 31 g ai/ha) | Plant response rating, Lambsquarters ([6]; 125 g ai/ha)
30: Plant response rating, Ragweed ([1]; 250 g ai/ha) | Plant response rating, Lambsquarters ([6]; 250 g ai/ha)
20: Plant response rating, Oilseed Rape ([8]; 31 g ai/ha)
65: Plant response rating, Galium ([7]; 250 g ai/ha) | Plant response rating, Barnyardgrass ([10]; 250 g ai/ha)
60: Plant response rating, Galium ([7]; 62 g ai/ha) | Plant response rating, Galium ([7]; 125 g ai/ha)
40: Plant response rating, Ragweed ([1]; 125 g ai/ha) | Plant response rating, Morningglory ([2]; 250 g ai/ha) | Plant response rating, Velvetleaf ([5]; 31 g ai/ha) | Plant response rating, Velvetleaf ([5]; 62 g ai/ha) | Plant response rating, Galium ([7]; 31 g ai/ha)
